System: mammary tumor derived from RBA CRL-1747 cell line
Test: Scintigraphic (planar) imaging in breast tumor-bearing rats
Type: in vivo, rat
Settings: 0.5-4 hrs post-injection
From the text: The camera field of view is 20 cm×20 cm with an edge of 1.3 cm. The intrinsic spatial resolution is 3 mm and the matrix is 64×64.
To ascertain whether the tumor uptake by with ^99mTc-GAP-EDL was related to estrogen receptors, we performed a blocking study. […] Computer outlined regions of interest (ROI) (counts per pixel) were used to determine tumor-to-background count density ratios.
Scintigraphic images were obtained at 0.5-4.0 hrs after i.v. injection of ^99mTc-GAP-COX2i (300 μCi/rat, iv) and imaged at 0.5-4.0 hrs in mammary tumor-bearing rats (derived from RBA CRL-1747 cell line). Whole-body autoradiograms were obtained by a quantitative image analyzer (Cyclone Storage Phosphor System, Packard, Meridian, Conn.). Following intravenous injection of ^99mTc-GAP-COX2i (100 μCi/rat, iv), athymic nude mice bearing human uterine sarcoma in the right leg were killed at 1 hour and the body was fixed in carboxymethyl cellulose (3%). […] Each section was thawed and mounted on a slide. […]
Scintigraphic images were obtained at 0.5-4.0 hrs after i.v. injection of ^99“Tc-GAP-LAS or GAP-HCD (300 μCi/rat, iv) and imaged at 0.5-4.0 hrs in mammary tumor-bearing rats (derived from RBA CRL-1747 cell line). Whole-body autoradiogramrs were obtained by a quantitative image analyzer (Cyclone Storage Phosphor System, Packard, Meridian, Conn.). […]

## O=C([O-])CN(CCN(CC(=O)[O-])CC(=O)[O-])CCN(CC(=O)[O-])CC(=O)[O-].[99Tc+4] [^99mTc-DTPA]
  tumor visualization on scintigraphic images: tumor could be visualized

Source: patent US20060246005A1, “Poly(peptide) as a chelator: methods of manufacture and uses” (THE BOARD OF REGENTS OF THE UNIVERSITY OF TEXAS SYSTEM, priority 2005, published 2006)
